Laboratory results from patent US20120238488A1, “COMPOUNDS AND METHODS FOR TREATING NEOPLASIA” (priority 2009, published 2012).
Read-outs that look alike come from different tables or passages of the source.

Experiments:
[1] = system: 22 different cell lines, nine tumor panels (lung, melanoma, ovary, prostate, CNS, breast, pancreas colon and renal); test: SRB assay, all tumor cell line panels (summary statements); assay type: cell-based, human; details: for GI50 action in all cell line panels tested (in words): SRB; for viability and/or cell proliferation of neoplastic cell lines: lung, breast, CNS, colon, prostate, ovary, pancreas, kidney and melanoma lines, including a multidrug resistant cell line
Experimental: (§1) SRB assays were performed according to standard National Cancer Institute Guidelines. Briefly, human tumor cells from different cancer panels were seeded into 96 well plates in 100 μL (plating densities ranging from 5-40,000 cells/well depending on the doubling time of individual cell lines) in serum-containing media for twenty-four hours prior to the addition of the compounds to be assayed. After 24 hours, one plate of each cell line was fixed in situ with trichloroacetic acid (TCA). The fixed slides were used to determine the cell population for each cell line at the time of drug addition (Tz). Each compound to be tested was solubilized in DMSO and the desired concentration was then added to the medium and diluted serially 1:10 to provide a total of five or ten drug concentrations plus control (in a final volume of 200 μL). The starting dose before any dilution was 100 uM for all compounds.
(§2) Following drug addition, each culture was incubated for forty-eight hours. The assay was terminated with the addition of cold TCA. The supernatant was discarded, and the plates were washed with tap water and air dried. Sulforhodamine B (SRB) solution was then added to each well. After staining, the bound stain was solubilized and the absorbance was read on an automated plate reader at a wavelength of 515 nm.
(§3) Using the absorbance measurements [time zero, (Tz), control growth, (C), and test growth in the presence of drug at the ten concentration levels (Ti)], the percentage growth was calculated at each of the drug concentrations levels. Percentage growth inhibition was calculated as:
Three dose response parameters were calculated for each experimental agent. […] The drug concentration resulting in total growth inhibition (TGI) was calculated from Ti=Tz. The LC50 (concentration of drug resulting in a 50% reduction in the measured protein at the end of the drug treatment as compared to that at the beginning) indicating a net loss of cells following treatment was calculated from [(Ti−Tz)/Tz]×100=−50.
Each of these parameters in Table 4 was calculated in a sulforhodamine B (SRB) assay, which provides a colorimetric measure of a compound's anti-cancer activity. SRB assays were performed with compounds of the invention in 22 different cell lines (shaded in light gray in Table 4), which represent nine different tumor panels (lung, melanoma, ovary, prostate, CNS, breast, pancreas colon and renal). […] Paclitaxel was added as a non-Na^+K^+-ATPase inhibitor control.

[2] = system: HCT116 colon cancer, PC3 and DU145 prostate cancer cell lines; test: MTT proliferation/viability assay; assay type: cell-based; details: 72 h, FIGS. 1A-1D, HCT116 only compound 120
Experimental: All assays were performed in triplicate.
The effect of the different compounds on the proliferation and viability of cancer cell lines was tested. Compound 120 was tested in one colon cancer cell line (HCT116), and compound Nos. 120, 12, 61, 1, and 56 were tested in two prostate cancer cell lines (PC3 and DU145). […] This colorimetric assay uses the reduction of MTT to formazan as a measure of metabolic activity. Untreated cells cultured in the presence of serum were used as a negative control.

H160 (Lung) = test: SRB assay, H160; assay type: cell-based, human; details: 48 h; for TGI / GI50: H160, SRB; for CC50 / GI50: Homo sapiens; for CC50: read-out: LC50
Experimental: as §1, §2, §3
(§4) [(Ti−Tz)/(C−Tz)]×100 for concentrations for which Ti>/=Tz
(§5) [(Ti−Tz)/Tz]×100 for concentrations for which Ti<Tz.
(§6) Three dose response parameters were calculated for each experimental agent. Growth inhibition of 50% (GI50) was calculated from [(Ti−Tz)/(C−Tz)]×100=50, which was the drug concentration resulting in a 50% reduction in the net protein increase (as measured by SRB staining) in control cells during the drug. The drug concentration resulting in total growth inhibition (TGI) was calculated from Ti=Tz. The LC50 (concentration of drug resulting in a 50% reduction in the measured protein at the end of the drug treatment as compared to that at the beginning) indicating a net loss of cells following treatment was calculated from [(Ti−Tz)/Tz]×100=−50.
(§7) Values were calculated for each of these three parameters when the level of activity was reached; however, if the effect was not reached or was exceeded, the value for that parameter was expressed as greater or less than the maximum or minimum concentration tested.
(§8) Table 4 summarizes results characterizing the effects of compound Nos. 120, 12, 61, 1, and 56 on GI50, which measures the cell growth inhibitory power of the compound, TGI, which measures cytostatic effect (TGI) and LC50, which signifies cytotoxic effect. Each of these parameters in Table 4 was calculated in a sulforhodamine B (SRB) assay, which provides a colorimetric measure of a compound's anti-cancer activity. SRB assays were performed with compounds of the invention in 22 different cell lines (shaded in light gray in Table 4), which represent nine different tumor panels (lung, melanoma, ovary, prostate, CNS, breast, pancreas colon and renal). Ouabain and digoxin were used as controls. Paclitaxel was added as a non-Na^+K^+-ATPase inhibitor control.

U251 (CNS) = test: SRB assay, U251; assay type: cell-based, human; details: for CC50 / GI50: Homo sapiens; for CC50: read-out: LC50
Experimental: as §1, §2, §3, §4, §5, §6, §7, §8

HCT15 (Colon) = test: SRB assay, HCT15; assay type: cell-based, human; details: for TGI / GI50: HCT15, SRB, 48 h; for CC50 / GI50: Homo sapiens; for CC50: HCT-15, 48 h, read-out: LC50; for GI50: HCT-15
Experimental: as §1, §2, §3, §4, §5, §6, §7, §8

LOXIMVI (Melanoma) = test: SRB assay, LOXIMVI; assay type: cell-based, human; details: 48 h; for CC50 / GI50: Homo sapiens, LOX IMVI; for CC50: read-out: LC50; for GI50 / TGI: LOXIMVI, SRB
Experimental: as §1, §2, §3, §4, §5, §6, §7, §8

IGROV1 (Ovary) = test: SRB assay, IGROV1; assay type: cell-based, human; details: for CC50 / GI50: Homo sapiens; for CC50: IGROV-1, 48 h, read-out: LC50; for GI50: IGROV-1; for GI50 / TGI: IGROV1, SRB, 48 h
Experimental: as §1, §2, §3, §4, §5, §6, §7, §8

MCF7 (Breast) = test: SRB assay, MCF7; assay type: cell-based, human; details: for CC50 / GI50: Homo sapiens; for CC50: MCF7, 48 h, read-out: LC50; for GI50 / TGI: MCF7, SRB, 48 h
Experimental: as §1, §2, §3, §4, §5, §6, §7, §8

SU8686 (Pancreas) = test: SRB assay, SU8686; assay type: cell-based, human; details: for CC50 / GI50: Homo sapiens; for CC50: SU.86.86, 48 h, read-out: LC50; for GI50: SU.86.86; for GI50 / TGI: SU8686, SRB, 48 h
Experimental: as §1, §2, §3, §4, §5, §6, §7, §8

[3] = system: A549 xenografts (lung carcinoma); test: A549 xenograft anti-tumor activity; assay type: in vivo, Nod/Scid mice; details: A549 xenografts, compound 56 20 mgk, paclitaxel 18 mgk
Experimental: All administrations were intraperitoneal.
At day 20 post inoculation (dpi), mean tumor volume was measured at 117.6 mm^3.
Compound 56 was administered intraperitoneallly using a [(QD×5;2) ×5] scheme. Paclitaxel, used as a positive control, was injected twice weekly for 5 cycles (Tuesday & Friday).

[4] = U-251, U251, SRB, 48 h, read-out: GI50

Compound | GI50 action in all cell line panels tested (in words) [1] | viability and/or cell proliferation of neoplastic cell lines [1] | inhibition of cell proliferation and viability (MTT) [2] | TGI (H160 (Lung)) | CC50 (H160 (Lung)) | GI50 (H160 (Lung)) | CC50 (U251 (CNS); U-251, 48 h) | GI50 (U251 (CNS); [4]) | TGI (HCT15 (Colon)) | CC50 (HCT15 (Colon)) | GI50 (HCT15 (Colon)) | CC50 (LOXIMVI (Melanoma)) | GI50 (LOXIMVI (Melanoma)) | TGI (LOXIMVI (Melanoma)) | CC50 (IGROV1 (Ovary)) | GI50 (IGROV1 (Ovary)) | TGI (IGROV1 (Ovary)) | CC50 (MCF7 (Breast)) | GI50 (MCF7 (Breast)) | TGI (MCF7 (Breast)) | other results
C[C@]12CCC(=NOCCN)CC1CCC1C2CC[C@]2(C)C(=O)CCC12 (stereo partly drawn) [Compound 1, (10S,13S)-3-(2-aminoethoxyimino)-10,13-dimethyltetradecahydro-1H-cyclopenta[a]phenanthren-17(2H)-one] | nanomolar GI50 action | reduced the viability and/or cell proliferation | strong inhibition of cell proliferation and viability | – | – | – | – | – | – | – | – | – | – | – | – | – | – | – | – | – | –
C[C@]12CCC(=NOCCN)C=C1CCC1C2CC[C@]2(C)C(=O)CCC12 (stereo partly drawn) [Compound 12, (10R,13S)-3-(2-aminoethoxyimino)-10,13-dimethyl-2,3,7,8,9,10,11,12,13,14,15,16-dodecahydro-1H-cyclopenta[a]phenanthren-17(6H)-one] | mostly single-digit micromolar GI50 action | reduced the viability and/or cell proliferation | strong inhibition of cell proliferation and viability | 5.86 µM | 8.73 µM | 2.99 µM | 8.61 µM | 3.09 µM | 6.70 µM | 9.61 µM | 3.79 µM | ≥ 117 µM | 0.66 µM | 24.06 µM | 68.4 µM | 5.37 µM | 12.38 µM | 9.47 µM | 3.79 µM | 6.63 µM | TGI (U251 (CNS); U251, SRB, 48 h): 5.85 µM
C[C@]12CCC(=NOC3CCNC3)C=C1CCC1C2CC[C@]2(C)C(=O)CCC12 (stereo partly drawn) [Compound 61, (10R,13S)-10,13-dimethyl-3-(pyrrolidin-3-yloxyimino)-2,3,7,8,9,10,11,12,13,14,15,16-dodecahydro-1H-cyclopenta[a]phenanthren-17(6H)-one] | nanomolar GI50 action | reduced the viability and/or cell proliferation | strong inhibition of cell proliferation and viability | – | – | – | – | – | – | – | – | – | – | – | – | – | – | – | – | – | –
C[C@]12CCC(=NOCCN)C=C1CCC1C2CC[C@@]2(C)C1CC[C@@H]2O (stereo partly drawn) [Compound 120, (1S,9aR,11aS)-17-hydroxy-10,13-dimethyl-6,7,8,9,10,11,12,13,14,15,16,17-dodecahydro-1H-cyclopenta[a]phenanthren-3(2H)-one O-2-aminoethyl oxime] | mostly single-digit micromolar GI50 action | reduced the viability and/or cell proliferation | strong inhibition of cell proliferation and viability | 11.68 µM | 21.7 µM | 4.13 µM | 68.5 µM | 6.77 µM | 23.51 µM | 76.3 µM | 6.39 µM | 97.2 µM | 7.14 µM | 25.19 µM | 67.4 µM | 5.49 µM | 10.74 µM | 24.1 µM | 7.04 µM | 14.85 µM | TGI (U251 (CNS); U251, SRB, 48 h): 27.92 µM; CC50 (SU8686 (Pancreas)): 23.1 µM; GI50 (SU8686 (Pancreas)): 7.45 µM; TGI (SU8686 (Pancreas)): 15.27 µM
C[C@H]1O[C@@H](O[C@H]2[C@@H](O)C[C@H](O[C@H]3[C@@H](O)C[C@H](O[C@H]4CC[C@@]5(C)[C@H](CC[C@@H]6[C@@H]5C[C@@H](O)[C@]5(C)[C@@H](C7=CC(=O)OC7)CC[C@]65O)C4)O[C@@H]3C)O[C@@H]2C)C[C@H](O)[C@@H]1O [Digoxin, reference compound] | – | – | – | <0.08 µM | 0.3 µM | < 0.08 µM | 0.61 µM | – | 0.06 µM | 0.16 µM | 0.03 µM | > 100 µM | 0.08 µM | >100 µM | > 100 µM | 0.04 µM | 0.35 µM | 0.4 µM | < 0.08 µM | 0.1 µM | TGI (U251 (CNS)): 0.10 µM; GI50 (U251 (CNS); U-251, 48 h): 0.02 µM; CC50 (SU8686 (Pancreas)): 0.63 µM; GI50 (SU8686 (Pancreas)): 0.03 µM; TGI (SU8686 (Pancreas)): 0.09 µM
CC(=O)O[C@H]1C(=O)[C@@]2(C)[C@H]([C@H](OC(=O)c3ccccc3)[C@]3(O)C[C@H](OC(=O)[C@H](O)[C@@H](NC(=O)c4ccccc4)c4ccccc4)C(C)=C1C3(C)C)[C@]1(OC(C)=O)CO[C@@H]1C[C@@H]2O [Paclitaxel, reference compound] | – | – | – | 3.7685 µM | > 10 µM | < 0.1 µM | 6.73 µM | < 0.001 µM | 0.852 µM | 12.3 µM | 0.053 µM | 5.18 µM | < 0.001 µM | 0.288 µM | 10.6 µM | 0.001 µM | 3.305 µM | > 10 µM | < 0.1 µM | >10 µM | TGI (U251 (CNS); U251, SRB, 48 h): 1.745 µM; DT/DC ([3]; day 24, intraperitoneal): −46,68%; post mortem analysis on excised tumors: tumor growth inhibition [3]: statistical significant tumor growth inhibition; CC50 (SU8686 (Pancreas)): 16.5 µM; GI50 (SU8686 (Pancreas)): 0.008 µM; TGI (SU8686 (Pancreas)): 7.927 µM
